# Patent US20250114342A1, “APIXABAN ORAL LIQUID DOSAGE FORMS” (Shilpa Medicare Limited, priority 2023, published 2025)
# Read-outs that look alike come from different tables or passages of the source.
# Columns and labels:
# [1] = Drug-excipients compatibility study (thermal stability); assay type: physicochemical
# Procedure: Amounts of apixaban and other components identified here were determined chromatographically, e.g., High Performance Liquid Chromatograph (HPLC). Amounts of apixaban related substances identified here were also determined chromatographically, e.g., High Performance Liquid Chromatograph (HPLC).
# [2] = cited from earlier work
compound,measurement,setting,value
"COc1ccc(-n2nc(C(N)=O)c3c2C(=O)N(c2ccc(N4CCCCC4=O)cc2)CC3)cc1 [apixaban, 1-(4-methoxyphenyl)-7-oxo-6-[4-(2-oxopiperidin-1-yl)phenyl]-4,5,6,7-tetrahydro-1H-pyrazolo[3,4-c]pyridine-3-carboxamide]",Any individual unspecified impurity,[1]; 15 Days 60° C. Close Vial,0.03 % w/w
same,Related substances: Acid Impurity,[1]; 15 Days 60° C. Close Vial,0.02 % w/w
same,Total impurities,[1]; 15 Days 60° C. Close Vial,0.07 % w/w
same,Any individual unspecified impurity,[1]; 30 Days 25° C. Close Vial,0.03 % w/w
same,Related substances: Acid Impurity,[1]; 30 Days 25° C. Close Vial,0.01 % w/w
same,Total impurities,[1]; 30 Days 25° C. Close Vial,0.07 % w/w
same,Any individual unspecified impurity,[1]; 30 Days 25° C. Open Vial,0.02 % w/w
same,Related substances: Acid Impurity,[1]; 30 Days 25° C. Open Vial,0.02 % w/w
same,Total impurities,[1]; 30 Days 25° C. Open Vial,0.07 % w/w
same,Any individual unspecified impurity,[1]; 30 Days 40° C. Close Vial,0.03 % w/w
same,Related substances: Acid Impurity,[1]; 30 Days 40° C. Close Vial,0.02 % w/w
same,Total impurities,[1]; 30 Days 40° C. Close Vial,0.09 % w/w
same,Any individual unspecified impurity,[1]; 30 Days 40° C. Open Vial,0.03 % w/w
same,Related substances: Acid Impurity,[1]; 30 Days 40° C. Open Vial,0.02 % w/w
same,Total impurities,[1]; 30 Days 40° C. Open Vial,0.09 % w/w
same,Any individual unspecified impurity,[1]; Initial,0.02 % w/w
same,Related substances: Acid Impurity,[1]; Initial,0.01 % w/w
same,Total impurities,[1]; Initial,0.06 % w/w
same,solubility,"[2]; 2 mg of apixaban, 100% propylene glycol, 20° C.",partially soluble
same,solubility,"[2]; higher amount of apixaban, 40% propylene glycol+60% glycerol, 20° C.",insoluble
same,solubility,"[2]; higher amount of apixaban, 40% propylene glycol+60% glycerol, 40° C.",gets dissolved
